# Assay results: patent publication US20240225053A9 (priority 2021, published 2024)
# Entries after “also recorded” stand apart in the source; their conditions may differ. Like-named read-outs stand apart in the source and are kept apart here.
# What was measured:
# Format in all cases: cell-based
# [1] = tested on: Clostridium perfringens ATCC10873; design: key to Settling: Good: Settling effect observed; Poor: No settling effect observed; conditions: for Settling: 37° C., 8 hours; for Concentration required for settling / at which settling was confirmed: absence of AG, optical density about 2.0 at 660 nm
# [2] = tested on: Clostridium perfringens ATCC10873; conditions: for Shape: 8 hours
# [3] = tested on: Clostridium perfringens SM101 (CPE toxin producer); design: key to Agglomeration: Good: Agglomeration effect observed; Poor: No agglomeration effect observed; conditions: 500 mM
# [4] = tested on: Clostridium perfringens CNEOP004 (netB toxin producer); design: key to Agglomeration: Good: Agglomeration effect observed; Poor: No agglomeration effect observed; conditions: 500 mM
# [5] = tested on: Clostridium perfringens ATCC10873; design: unit not given here; conditions: bacterial cells, 8 hours, diluted 100 times
# [6] = tested on: Clostridium perfringens SM101; design: unit not given here; conditions: bacterial cells, 500 mM, 8 hours, diluted 100 times
# [7] = tested on: Clostridium perfringens CNEOP004; design: unit not given here; conditions: bacterial cells, 500 mM, 8 hours, diluted 100 times
# [8] = tested on: Lactobacillus casei ATCC393; design: key to Agglomeration: Good: Those in which agglomeration observed under upright microscope; Poor: Those in which no agglomeration observed under upright microscope
# [9] = tested on: Bifidobacterium animalis JCM1190; design: key to Agglomeration: Good: Those in which agglomeration observed under upright microscope; Poor: Those in which no agglomeration observed under upright microscope
# [10] = tested on: Salmonella enterica IAM1648; design: key: Good: Those in which agglomeration observed under upright microscope; Poor: Those in which no agglomeration observed under upright microscope
# Escherichia coli MG1655 = tested on: Escherichia coli MG1655; design: key: Good: Those in which agglomeration observed under upright microscope; Poor: Those in which no agglomeration observed under upright microscope
# [11] = tested on: Clostridium perfringens ATCC10873; design: key: Good: Agglomeration effect observed; Poor: No agglomeration effect observed
# [12] = tested on: Clostridium perfringens ATCC10873; design: key: Good: Those in which agglomeration observed under upright microscope; Poor: Those in which no agglomeration observed under upright microscope; conditions: Table 4, 500 mM
# [13] = tested on: mixed bacterial cells of Clostridium perfringens ATCC10873, Salmonella enterica IAM1648 and E. coli MG1655; conditions: 500 mM in combination with Arabic Gum 1%; OD660 about 2.0, 37° C.
# [14] = tested on: Clostridium perfringens strain SM101; conditions: KCl 500 mM
# [15] = absence of AG, Example 2 strains
# [16] = Table 2-1, 100 mM, without AG, 8 hours
smiles,measurement,setting,value
[Ca+2].[Cl-].[Cl-] [CaCl2],Settling,"[1]; 20 mM, without AG",Poor
same,Settling,"[1]; 100 mM, without AG",Poor
same,Shape,"[2]; 20 mM, without AG",Rod-shaped
same,Shape,"[2]; 100 mM, without AG",Rod-shaped
same,Concentration at which bacterial cells agglomerated,[2]; absence of AG,≥ 20 mM
same,Agglomeration (text),[2]; [15],agglomerated in the state of bacilli
same,Shape,"[3]; without AG, 8 hours",Rod-shaped
same,Agglomeration,"[3]; Table 2-2, without AG, 8 hours",Good
same,Agglomeration,"[3]; Table 3-2, without AG",Good
same,Shape,"[4]; without AG, 8 hours",Rod-shaped
same,Agglomeration,"[4]; Table 2-3, without AG, 8 hours",Good
same,Agglomeration,"[4]; Table 3-3, without AG",Good
same,Zeta potential,"[5]; 20 mM, without AG",−4.4
same,Zeta potential,"[5]; 100 mM, without AG",−4.0
same,Zeta potential,[6]; without AG,−14.3
same,Zeta potential,[7]; without AG,−12.3
same,Agglomeration,[8],Poor
same,Agglomeration,[9],Poor
same,Agglomeration,[10],Poor
same,Agglomeration,Escherichia coli MG1655,Poor
same,Agglomeration,"[11]; Table 2-1, 20 mM, without AG, 8 hours",Good
same,Agglomeration,[11]; [16],Good
same,Agglomeration,"[11]; Table 3-1, 20 mM, without AG",Good
same,Agglomeration,"[11]; Table 3-1, 100 mM, without AG",Good
same,Agglomeration,[12]; without AG,Good
[Cl][Fe][Cl] [FeCl2],Settling,"[1]; 10 mM, without AG",Good
same,Settling,"[1]; 50 mM, without AG",Good
same,Concentration required for settling / at which settling was confirmed,[1],≥ 10 mM
same,Shape,"[2]; 10 mM, without AG",Rod-shaped
same,Shape,"[2]; 50 mM, without AG",Rod-shaped
same,Concentration at which bacterial cells agglomerated,[2]; absence of AG,≥ 10 mM
same,Agglomeration (text),[2]; [15],showed an agglomeration effect; also recorded: agglomerated in the state of bacilli
same,Shape,"[3]; without AG, 8 hours",Rod-shaped
same,Agglomeration,"[3]; Table 2-2, without AG, 8 hours",Good
same,Agglomeration,"[3]; Table 3-2, without AG",Good
same,Shape,"[4]; without AG, 8 hours",Rod-shaped
same,Agglomeration,"[4]; Table 2-3, without AG, 8 hours",Good
same,Agglomeration,"[4]; Table 3-3, without AG",Good
same,Zeta potential,"[5]; 10 mM, without AG",0.8
same,Zeta potential,"[5]; 50 mM, without AG",20.7
same,Zeta potential,[6]; without AG,4.1
same,Zeta potential,[7]; without AG,21.5
same,Agglomeration,[8],Good
same,Agglomeration effect,[8],showed an agglomeration effect
same,Agglomeration,[9],Good
same,Agglomeration effect,[9],showed an agglomeration effect
same,Agglomeration,[10],Poor
same,Agglomeration,Escherichia coli MG1655,Poor
same,Agglomeration,"[11]; Table 2-1, 10 mM, without AG, 8 hours",Good
same,Agglomeration,"[11]; Table 2-1, 50 mM, without AG, 8 hours",Good
same,Agglomeration,"[11]; Table 3-1, 10 mM, without AG",Good
same,Agglomeration,"[11]; Table 3-1, 50 mM, without AG",Good
same,Agglomeration,[12]; without AG,Good
[Cl-].[K+] [KCl],Settling,"[1]; 100 mM, without AG",Good
same,Settling,"[1]; 500 mM, w/AG 1%",Good
same,Settling,"[1]; 500 mM, without AG",Good
same,Concentration required for settling / at which settling was confirmed,[1],≥ 100 mM
same,Shape,"[2]; 100 mM, without AG",Spheroidal
same,Shape,"[2]; 500 mM, w/AG 1%",Spheroidal
same,Shape,"[2]; 500 mM, without AG",Spheroidal
same,Agglomeration (text),[2]; [15],did not agglomerate
same,Shape of the bacterial cells,[2]; [15],changed from bacilli to cocci
same,Agglomeration (text),"[2]; coexistence with AG, Example 2 strains",agglomerated in the state of cocci
same,Shape,"[3]; w/AG 1%, 8 hours",Spheroidal
same,Shape,"[3]; without AG, 8 hours",Spheroidal
same,Agglomeration,"[3]; Table 2-2, w/AG 1%, 8 hours",Good
same,Agglomeration,"[3]; Table 2-2, without AG, 8 hours",Poor
same,Agglomeration,"[3]; Table 3-2, w/AG 1%",Good
same,Agglomeration,"[3]; Table 3-2, without AG",Poor
same,Shape,"[4]; w/AG 1%, 8 hours",Spheroidal
same,Shape,"[4]; without AG, 8 hours",Spheroidal
same,Agglomeration,"[4]; Table 2-3, w/AG 1%, 8 hours",Good
same,Agglomeration,"[4]; Table 2-3, without AG, 8 hours",Poor
same,Agglomeration,"[4]; Table 3-3, w/AG 1%",Good
same,Agglomeration,"[4]; Table 3-3, without AG",Poor
same,Zeta potential,"[5]; 500 mM, W/AG 1%",−10.2
same,Zeta potential,"[5]; 500 mM, without AG",−29.0
same,Zeta potential,[6]; w/AG 1%,−26.5
same,Zeta potential,[6]; without AG,−30.2
same,Zeta potential,[7]; w/AG 1%,−23
same,Zeta potential,[7]; without AG,−25
same,Agglomeration,[8],Poor
same,Agglomeration effect,[8],not exerted
same,Agglomeration,[9],Poor
same,Agglomeration effect,[9],not exerted
same,Agglomeration,[10],Poor and Good
same,Agglomeration,Escherichia coli MG1655,Poor and Good
same,Agglomeration of the three types of enteric bad bacteria,[13],can quickly agglomerate
same,Nature of cocci (vegetative cells or spores) under phase-contrast microscope,[14],not spores
same,Agglomeration,[11]; [16],Poor
same,Agglomeration,"[11]; Table 2-1, 500 mM, w/AG 1%, 8 hours",Good
same,Agglomeration,"[11]; Table 2-1, 500 mM, without AG, 8 hours",Poor
same,Agglomeration,"[11]; Table 3-1, 500 mM, W/AG 1%",Good
same,Agglomeration,"[11]; Table 3-1, 500 mM, without AG",Poor
same,Agglomeration,[12]; W/AG 1%,Good
same,Agglomeration,[12]; without AG,Poor
